Measured values taken from patent US9029391B2 (priority 2011, dated 2015).
Like-named read-outs stand apart in the source and are kept apart here.

Test system: HIV
Assay: MT4 Assay (anti-HIV activity)
Assay type: cell-based
Method: Antiviral HIV activity and cytotoxicity values for compounds of the invention from Table 1 were measured in parallel in the HTLV-1 transformed cell line MT-4 based on the method previously described (Hazen et al., 2007, In vitro antiviral activity of the novel, tyrosyl-based human immunodeficiency virus (HIV) type 1 protease inhibitor brecanavir (GW640385) in combination with other antiretrovirals and against a panel of protease inhibitor-resistant HIV (Hazen et al., “In vitro antiviral activity of the novel, tyrosyl-based human immunodeficiency virus (HIV) type 1 protease inhibitor brecanavir (GW640385) in combination with other antiretrovirals and against a panel of protease inhibitor-resistant HIV”, Antimicrob. Agents Chemother. 2007, 51: 3147-3154; and Pauwels et al., “Sensitive and rapid assay on MT-4 cells for the detection of antiviral compounds against the AIDS virus”, J. of Virological Methods 1987, 16: 171-185).
Luciferase activity was measured 96 hours later by adding a cell titer glo (Promega, Madison, Wis.). Percent inhibition of cell protection data was plotted relative to no compound control. Under the same condition, cytotoxicity of the compounds was determined using cell titer glo (Promega, Madison, Wis.). IC50s were determined from a 10 point dose response curve using 3-4-fold serial dilution for each compound, which spans a concentration range >1000 fold.

[1] = Human immunodeficiency virus 1, 96 h, read-out: HIV MT4 Assay IC50, HTLV-1 transformed cell line MT-4, cell titer glo, 10 point dose response curve

SMILES | IC50 [1] | IC50 (read-out: HIV MT4 Assay IC50, HTLV-1 transformed cell line MT-4, 96 hours, cell titer glo, 10 point dose response curve)
Cn1c(C(OC(C)(C)C)C(=O)O)c(-c2cccc(F)c2)c2ccccc2c1=O (stereo not shown) [Example 40, 2-(tert-butoxy)-2-[4-(3-fluorophenyl)-2-methyl-1-oxo-1,2-dihydroisoquinolin-3-yl]acetic acid] | 2180 nM | 
Cn1c(C(OC(C)(C)C)C(=O)O)c(-c2ccc3c(c2)OCCC3)c2ccccc2c1=O (stereo not shown) [Example 36, 2-(tert-butoxy)-2-[4-(3,4-dihydro-2H-1-benzopyran-7-yl)-2-methyl-1-oxo-1,2-dihydroisoquinolin-3-yl]acetic acid] | 15000 nM | 
Cn1cc(-c2c(C(OC(C)(C)C)C(=O)O)n(C)c(=O)c3ccccc23)cn1 (stereo not shown) [Example 157, [(1,1-dimethylethyl)oxy][2-methyl-4-(1-methyl-1H-pyrazol-4-yl)-1-oxo-1,2-dihydro-3-isoquinolinyl]acetic acid] | 41600 nM | 
Cc1ccc2c(-c3ccc(C)c(C)c3)c(C(OC(C)(C)C)C(=O)O)n(C)c(=O)c2c1 (stereo not shown) [Example 60, 2-(tert-butoxy)-2-[4-(3,4-dimethylphenyl)-2,7-dimethyl-1-oxo-1,2-dihydroisoquinolin-3-yl]acetic acid] | 1290 nM | 
CCOC(C(=O)O)c1c(-c2ccc(C)cc2C)c2ccccc2c(=O)n1C (stereo not shown) [Example 218, [4-(2,4-dimethylphenyl)-2-methyl-1-oxo-1,2-dihydro-3-isoquinolinyl](ethyloxy)acetic acid] | 33200 nM | 
Cc1c(-c2c([C@H](OC(C)(C)C)C(=O)O)n(C)c(=O)c3cc(Nc4ccc(Cl)c(F)c4)ccc23)cc(F)c2c1CCCO2 (atropisomer, axis not shown; (M)) [Example 165, (2S)(M)-[7-[(4-chloro-3-fluorophenyl)amino]-4-(8-fluoro-5-methyl-3,4-dihydro-2H-chromen-6-yl)-2-methyl-1-oxo-1,2-dihydro-3-isoquinolinyl][(1,1-dimethylethyl)oxy]ethanoic acid] | 100 nM | 
Cc1c(-c2c([C@@H](OC(C)(C)C)C(=O)O)n(C)c(=O)c3ccccc23)cc(F)c2c1CCCO2 [Example 160, (2R)-2-(tert-butoxy)-2-[4-(8-fluoro-5-methyl-3,4-dihydro-2H-1-benzopyran-6-yl)-2-methyl-1-oxo-1,2-dihydroisoquinolin-3-yl]acetic acid] |  | 41600 nM
Cn1c(C(OC(C)(C)C)C(=O)O)c(-c2ccncc2)c2ccccc2c1=O (stereo not shown) [Example 48, 2-(tert-butoxy)-2-[2-methyl-1-oxo-4-(pyridin-4-yl)-1,2-dihydroisoquinolin-3-yl]acetic acid] | 50000 nM | 
COc1ccc(-c2c(C(OC(C)(C)C)C(=O)O)n(C)c(=O)c3ccccc23)cc1 (stereo not shown) [Example 8, 2-(tert-butoxy)-2-[4-(4-methoxyphenyl)-2-methyl-1-oxo-1,2-dihydroisoquinolin-3-yl]acetic acid] | 1300 nM | 
Cn1c(C(OC(C)(C)C)C(=O)O)c(-c2ccc(Cl)cc2)c2ccccc2c1=O (stereo not shown) [Example 154, [4-(4-chlorophenyl)-2-methyl-1-oxo-1,2-dihydro-3-isoquinolinyl][(1,1-dimethylethyl)oxy]acetic acid] | 2090 nM | 
Cc1c(-c2c(C(OC(C)(C)C)C(=O)O)n(C)c(=O)c3cc(OC(F)F)ccc23)ccc2c1CCCO2 (stereo not shown) [Example 114, 2-(tert-butoxy)-2-[7-(difluoromethoxy)-2-methyl-4-(5-methyl-3,4-dihydro-2H-1-benzopyran-6-yl)-1-oxo-1,2-dihydroisoquinolin-3-yl]acetic acid] | 420 nM | 
COc1cc(-c2c(C(OC(C)(C)C)C(=O)O)n(C)c(=O)c3ccccc23)ccc1C (stereo not shown) [Example 52, 2-(tert-butoxy)-2-[4-(3-methoxy-4-methylphenyl)-2-methyl-1-oxo-1,2-dihydroisoquinolin-3-yl]acetic acid] | 3120 nM | 
Cc1c(-c2c(C(OC(C)(C)C)C(=O)O)n(C)c(=O)c3cc(OCc4ccc(S(C)(=O)=O)cc4)ccc23)ccc2c1CCCO2 (stereo not shown) [Example 128, 2-(tert-butoxy)-2-{7-[(4-methanesulfonylphenyl)-methoxy]-2-methyl-4-(5-methyl-3,4-dihydro-2H-1-benzopyran-6-yl)-1-oxo-1,2-dihydroisoquinolin-3-yl}acetic acid] | 380 nM | 
COc1ccccc1-c1c(C(OC(C)(C)C)C(=O)O)n(C)c(=O)c2ccccc12 (stereo not shown) [Example 33, 2-(tert-butoxy)-2-[4-(2-methoxyphenyl)-2-methyl-1-oxo-1,2-dihydroisoquinolin-3-yl]acetic acid] | 21700 nM | 
Cc1c(-c2c(C(OC(C)(C)C)C(=O)O)n(C)c(=O)c3ccc(F)cc23)ccc2c1CCCO2 (stereo not shown) [Example 69, 2-(tert-butoxy)-2-[6-fluoro-2-methyl-4-(5-methyl-3,4-dihydro-2H-1-benzopyran-6-yl)-1-oxo-1,2-dihydroisoquinolin-3-yl]acetic acid] | 570 nM | 
Cc1c(-c2c(C(OC(C)(C)C)C(=O)O)n(C)c(=O)c3cc(OCc4ccc(F)cc4)ccc23)cc(F)c2c1CCCO2 (stereo not shown) [Example 145, 2-(tert-butoxy)-2-[4-(8-fluoro-5-methyl-3,4-dihydro-2H-1-benzopyran-6-yl)-7-[(4-fluorophenyl)methoxy]-2-methyl-1-oxo-1,2-dihydroisoquinolin-3-yl]acetic acid] | 110 nM | 
Cc1c(-c2c([C@H](OC(C)(C)C)C(=O)O)n(C)c(=O)c3ccccc23)ccc2c1CCCO2 [Example 140, (2S)-2-(tert-butoxy)-2-[2-methyl-4-(5-methyl-3,4-dihydro-2H-1-benzopyran-6-yl)-1-oxo-1,2-dihydroisoquinolin-3-yl]acetic acid] | 110 nM | 
Cn1c(C(OC(C)(C)C)C(=O)O)c(-c2ccc3c(c2)CCCO3)c2ccc(Cl)cc2c1=O (stereo not shown) [Example 68, 2-(tert-butoxy)-2-[7-chloro-4-(3,4-dihydro-2H-1-benzopyran-6-yl)-2-methyl-1-oxo-1,2-dihydroisoquinolin-3-yl]acetic acid] | 2450 nM | 
Cc1c(-c2c([C@H](OC(C)(C)C)C(=O)O)n(C)c(=O)c3cc(-c4ccccc4)ccc23)cc(F)c2c1CCCO2 (atropisomer, axis not shown; (M)) [Example 204, (2S)(M)-[(1,1-dimethylethyl)oxy][4-(8-fluoro-5-methyl-3,4-dihydro-2H-chromen-6-yl)-2-methyl-1-oxo-7-phenyl-1,2-dihydro-3-isoquinolinyl]ethanoic acid] | 30 nM | 
Cn1c(C(OC(C)(C)C)C(=O)O)c(-c2ccc3c(c2Cl)NCCO3)c2ccccc2c1=O (stereo not shown) [Example 86, 2-(tert-butoxy)-2-[4-(5-chloro-3,4-dihydro-2H-1,4-benzoxazin-6-yl)-2-methyl-1-oxo-1,2-dihydroisoquinolin-3-yl]acetic acid] | 4380 nM | 
Cn1c(C(OC(C)(C)C)C(=O)O)c(-c2cnc3c(c2)CCCO3)c2ccccc2c1=O (stereo not shown) [Example 118, 2-(tert-butoxy)-2-(2-methyl-1-oxo-4-{2H,3H,4H-pyrano[2,3-b]pyridin-6-yl}-1,2-dihydroisoquinolin-3-yl)acetic acid] | 41600 nM | 
Cc1ccc(-c2c(C(OC(C)(C)C)C(=O)O)n(C)c(=O)c3cc(CNS(C)(=O)=O)ccc23)cc1C (stereo not shown) [Example 187, 2-(tert-butoxy)-2-(4-(3,4-dimethylphenyl)-2-methyl-7-(methylsulfonamidomethyl)-1-oxo-1,2-dihydroisoquinolin-3-yl)acetic acid] | 22900 nM | 
CCOc1ccc(-c2c(C(OC(C)(C)C)C(=O)O)n(C)c(=O)c3ccccc23)cc1 (stereo not shown) [Example 42, 2-(tert-butoxy)-2-[4-(4-ethoxyphenyl)-2-methyl-1-oxo-1,2-dihydroisoquinolin-3-yl]acetic acid] | 33300 nM | 
Cc1nc(COc2ccc3c(-c4cc(F)c5c(c4C)CCCO5)c([C@H](OC(C)(C)C)C(=O)O)n(C)c(=O)c3c2)c(C)o1 [Example 105, (2S)-2-(tert-butoxy)-2-{7-[(dimethyl-1,3-oxazol-4-yl)methoxy]-4-(8-fluoro-5-methyl-3,4-dihydro-2H-1-benzopyran-6-yl)-2-methyl-1-oxo-1,2-dihydroisoquinolin-3-yl}acetic acid] | 100 nM | 
Cn1c(C(OC(C)(C)C)C(=O)O)c(-c2ccc3c(c2)NCCO3)c2ccccc2c1=O (stereo not shown) [Example 82, 2-(tert-butoxy)-2-[4-(3,4-dihydro-2H-1,4-benzoxazin-6-yl)-2-methyl-1-oxo-1,2-dihydroisoquinolin-3-yl]acetic acid] | 7400 nM | 
CCNC(=O)NCc1ccc2c(-c3ccc(C)c(C)c3)c(C(OC(C)(C)C)C(=O)O)n(C)c(=O)c2c1 (stereo not shown) [Example 185, 2-(tert-butoxy)-2-(4-(3,4-dimethylphenyl)-7-((3-ethylureido)methyl)-2-methyl-1-oxo-1,2-dihydroisoquinolin-3-yl)acetic acid] | 37400 nM | 
Cc1occc1-c1c(C(OC(C)(C)C)C(=O)O)n(C)c(=O)c2ccccc12 (stereo not shown) [Example 155, [(1,1-dimethylethyl)oxy][2-methyl-4-(2-methyl-3-furanyl)-1-oxo-1,2-dihydro-3-isoquinolinyl]acetic] | 13300 nM | 
Cc1c(-c2c([C@H](OC(C)(C)C)C(=O)O)n(C)c(=O)c3cc(OCc4cccs4)ccc23)cc(F)c2c1CCCO2 [Example 109, (2S)-2-(tert-butoxy)-2-[4-(8-fluoro-5-methyl-3,4-dihydro-2H-1-benzopyran-6-yl)-2-methyl-1-oxo-7-(thiophen-2-ylmethoxy)-1,2-dihydroisoquinolin-3-yl]acetic acid] | 20 nM | 
